In one assay the target is T1, Rat Plasma VAP-1 (Rattus norvegicus, UniProt O08590).
T1 construct: from tissue; host or cells: plasma of SD male rats (7-12 weeks old) after oral dosing
T1 sequence (O08590 28-763 limits assumed): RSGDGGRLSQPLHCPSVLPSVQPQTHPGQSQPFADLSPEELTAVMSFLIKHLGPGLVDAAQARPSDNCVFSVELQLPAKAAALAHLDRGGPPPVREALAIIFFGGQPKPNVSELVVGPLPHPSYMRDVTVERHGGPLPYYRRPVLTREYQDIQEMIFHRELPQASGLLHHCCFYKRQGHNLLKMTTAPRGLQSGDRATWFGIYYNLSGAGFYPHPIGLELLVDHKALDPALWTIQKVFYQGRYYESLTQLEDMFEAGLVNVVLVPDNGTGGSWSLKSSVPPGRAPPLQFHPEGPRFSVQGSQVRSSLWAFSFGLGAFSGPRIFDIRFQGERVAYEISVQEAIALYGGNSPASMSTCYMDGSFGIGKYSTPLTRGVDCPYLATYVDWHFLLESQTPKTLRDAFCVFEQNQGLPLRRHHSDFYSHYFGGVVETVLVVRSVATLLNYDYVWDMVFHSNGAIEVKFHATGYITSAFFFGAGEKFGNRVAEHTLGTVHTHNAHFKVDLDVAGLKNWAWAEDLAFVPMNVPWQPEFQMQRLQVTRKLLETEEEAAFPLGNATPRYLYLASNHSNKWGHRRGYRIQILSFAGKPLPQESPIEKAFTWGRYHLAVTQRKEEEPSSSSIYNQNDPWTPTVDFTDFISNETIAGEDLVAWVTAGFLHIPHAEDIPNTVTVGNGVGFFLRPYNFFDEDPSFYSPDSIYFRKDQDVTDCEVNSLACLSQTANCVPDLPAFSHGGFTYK
Put plainly: (Ex vivo) rat plasma VAP-1 inhibition test after oral administration of the compound. The format is in vivo. Particulars: 3 hours after oral administration, SD male rats, read-out: inhibition ratio (plasma VAP-1, ex vivo). Here is the method: (Ex Vivo) Rat Plasma VAP-1 Inhibition Test after Oral Administration of the Compound
The compound was orally administered (0.3-10 mg/kg) to 7-12 week old SD male rats in the non-fasting state. Under anesthesia, the blood was collected in heparin tubes from the jugular vein before the administration and 3, 8 and 24 hours after the administration. The blood was centrifuged at 14000 rpm for 10 minutes to get plasma. The VAP-1 enzyme activity in the plasma was measured by radiochemical enzyme assay.
The radiochemical enzyme assay was conducted by modifying the method of P. H. Yu et al. (Diabetologia 40 1243 (1997)). ^14C-benzylamine (2.5 μM) was added to the obtained plasma, and was incubated at 37° C. for 3 hours. The reaction was terminated by the addition of 100 μL of 2 M citric acid solution to the reaction solution. The oxidative product was extracted using a toluene/ethyl acetate mixture and the radioactivity was measured with a liquid scintillation counter. The inhibition ratio of the compound was calculated using the following equation. Inhibition ratio={1−[Plasma VAP-1 activity after administration of the compound]/[Plasma VAP-1 activity before administration]}×100

For a further assay, the target named is T2, Human VAP-1 enzyme (Homo sapiens, UniProt Q16853).
T2 construct: purchased R&D Systems, Inc
T2 sequence (Q16853 1-763): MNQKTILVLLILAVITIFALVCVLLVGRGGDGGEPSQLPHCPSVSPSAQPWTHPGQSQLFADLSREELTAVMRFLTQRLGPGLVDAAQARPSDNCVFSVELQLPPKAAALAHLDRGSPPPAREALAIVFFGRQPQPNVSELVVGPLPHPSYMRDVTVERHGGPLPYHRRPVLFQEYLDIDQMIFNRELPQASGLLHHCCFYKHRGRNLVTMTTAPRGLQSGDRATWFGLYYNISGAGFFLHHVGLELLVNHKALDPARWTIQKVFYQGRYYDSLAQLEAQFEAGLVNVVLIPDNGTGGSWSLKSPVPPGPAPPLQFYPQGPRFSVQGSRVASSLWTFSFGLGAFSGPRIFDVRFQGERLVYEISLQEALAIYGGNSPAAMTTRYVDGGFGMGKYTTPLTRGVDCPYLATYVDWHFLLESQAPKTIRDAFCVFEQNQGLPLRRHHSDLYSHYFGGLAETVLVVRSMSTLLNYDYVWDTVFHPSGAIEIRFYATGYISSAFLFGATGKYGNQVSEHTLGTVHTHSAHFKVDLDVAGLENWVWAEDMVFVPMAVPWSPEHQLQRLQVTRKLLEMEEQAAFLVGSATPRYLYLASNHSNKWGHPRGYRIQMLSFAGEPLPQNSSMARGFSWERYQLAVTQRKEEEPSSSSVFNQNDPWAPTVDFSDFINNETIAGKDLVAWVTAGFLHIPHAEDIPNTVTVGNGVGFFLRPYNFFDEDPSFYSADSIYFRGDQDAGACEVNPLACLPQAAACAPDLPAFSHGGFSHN
The experiment in a line: Human VAP-1 enzyme inhibition test. The settings on record: 1 h; compound 30 nM; 14C-benzylamine 100 μM; read-out: inhibition ratio (human VAP-1 enzyme). The format is biochemical. The method in brief:
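Recombinant human VAP-1 pre-incubated 20 min at room temperature with compound in DMSO, then reacted with 14C-benzylamine (100 μM final) 1 h at 37 °C. Citric acid stop; oxidized product extracted into toluene/ethyl acetate and counted by liquid scintillation. Inhibition ratio relative to DMSO-only activity.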

Where a name gives a salt, the structure may show the parent alone.

Regarding `N=C(N)NC(=O)OCc1cccc(-c2cnc(N3CCC(=NOCC(CO)CO)CC3)nc2)c1F` [Example 97, 2-Fluoro-3-[2-(4-{[3-hydroxy-2-(hydroxymethyl)propoxy]imino}piperidin-1-yl)pyrimidin-5-yl]benzyl carbamimidoylcarbamate], the inhibition in vivo at 0.3 mg/kg at Rat Plasma VAP-1 is no less than 50%. Moreover, the inhibition at 0.03 µM on Human VAP-1 enzyme was no less than 50%.
As to `CC(CO)(CO)CON=C1CCN(c2ncc(-c3cccc(COC(=O)NC(=N)N)c3F)cn2)CC1` [Example 98, 2-Fluoro-3-[2-(4-{[3-hydroxy-2-(hydroxymethyl)-2-methylpropoxy]imino}piperidin-1-yl)pyrimidin-5-yl]benzyl carbamimidoylcarbamate], the inhibition in vivo at 0.3 mg/kg at Rat Plasma VAP-1 was no less than 50%. Besides, the inhibition at 0.03 µM at Human VAP-1 enzyme was no less than 50%.
In the case of `N=C(N)NC(=O)OCc1cccc(-c2cnc(N3CCC(=NOCC(O)CO)CC3)nc2)c1F` (stereo not drawn) [Example 99, 3-(2-{4-[(2,3-Dihydroxypropoxy)imino]piperidin-1-yl}pyrimidin-5-yl)-2-fluorobenzyl carbamimidoylcarbamate], the inhibition in vivo at 0.3 mg/kg at Rat Plasma VAP-1 is no less than 50%. Besides, the inhibition at 0.03 µM on Human VAP-1 enzyme was no less than 50%.
`COC(CO)CON=C1CN(c2ncc(-c3cccc(COC(=O)NC(=N)N)c3F)cn2)C1` (stereo not drawn) [Example 101, 2-Fluoro-3-(2-{3-[(3-hydroxy-2-methoxypropoxy)imino]azetidin-1-yl}pyrimidin-5-yl)benzyl carbamimidoylcarbamate]: at Rat Plasma VAP-1, the inhibition in vivo at 0.3 mg/kg is no less than 50%. The inhibition at 0.03 µM at Human VAP-1 enzyme is no less than 50%.
Take `N=C(N)NC(=O)OCc1cccc(-c2cnc(N3CCC(=NO)CC3)nc2)c1F` [Example 105, 2-Fluoro-3-{2-[4-(hydroxyimino)piperidin-1-yl]pyrimidin-5-yl}benzyl carbamimidoylcarbamate hydrochloride]: the inhibition in vivo at 0.3 mg/kg on Rat Plasma VAP-1 is no less than 50%. On Human VAP-1 enzyme, the inhibition at 0.03 µM is no less than 50%.
For the molecule `N=C(N)NC(=O)OCc1cccc(-c2cnc(N3CCC(=NOCCC(N)=O)CC3)nc2)c1F` [Example 150, 3-(2-{4-[(3-Amino-3-oxopropoxy)imino]piperidin-1-yl}pyrimidin-5-yl)-2-fluorobenzyl carbamimidoylcarbamate], the inhibition in vivo at 0.3 mg/kg on Rat Plasma VAP-1 was no less than 50%. Further, the inhibition at 0.03 µM at Human VAP-1 enzyme is no less than 50%.
With `CNC(=O)CCON=C1CCN(c2ncc(-c3cccc(COC(=O)NC(=N)N)c3F)cn2)CC1` [Example 151, 2-Fluoro-3-[2-(4-{[3-(methylamino)-3-oxopropoxy]imino}piperidin-1-yl)pyrimidin-5-yl]benzyl carbamimidoylcarbamate], at Rat Plasma VAP-1, the inhibition in vivo at 0.3 mg/kg was no less than 50%. Besides, the inhibition at 0.03 µM on Human VAP-1 enzyme was no less than 50%.
`N=C(N)NC(=O)OCc1cccc(-c2cnc(N3CCC(=NOCCCC(=O)O)CC3)nc2)c1F` [Example 153, 4-[({1-[5-(3-{[(Carbamimidoylcarbamoyl)oxy]methyl}-2-fluorophenyl)pyrimidin-2-yl]piperidin-4-ylidene}amino)oxy]butanoic acid]: the inhibition in vivo at 0.3 mg/kg at Rat Plasma VAP-1 was no less than 50%. Besides, the inhibition at 0.03 µM on Human VAP-1 enzyme was no less than 50%.
For the molecule `CN(C)C(=O)CCON=C1CCN(c2ncc(-c3cccc(COC(=O)NC(=N)N)c3F)cn2)CC1` [Example 154, 3-[2-(4-{[3-(Dimethylamino)-3-oxopropoxy]imino}piperidin-1-yl)pyrimidin-5-yl]-2-fluorobenzyl carbamimidoylcarbamate], the inhibition in vivo at 0.3 mg/kg at Rat Plasma VAP-1 is no less than 50%. Besides, the inhibition at 0.03 µM at Human VAP-1 enzyme is no less than 50%.
For the molecule `CC(=O)NCCON=C1CCN(c2ncc(-c3cccc(COC(=O)NC(=N)N)c3F)cn2)CC1` [Example 155, 3-(2-{4-[(2-Acetamidoethoxy)imino]piperidin-1-yl}pyrimidin-5-yl)-2-fluorobenzyl carbamimidoylcarbamate], the inhibition in vivo at 0.3 mg/kg at Rat Plasma VAP-1 was no less than 50%. Further, on Human VAP-1 enzyme, the inhibition at 0.03 µM is no less than 50%.
In the case of `CC(=O)N(C)CCON=C1CCN(c2ncc(-c3cccc(COC(=O)NC(=N)N)c3F)cn2)CC1` [Example 156, 2-Fluoro-3-[2-(4-{[2-(N-methylacetamido)ethoxy]imino}piperidin-1-yl)pyrimidin-5-yl]benzyl carbamimidoylcarbamate], the inhibition in vivo at 0.3 mg/kg on Rat Plasma VAP-1 was no less than 50%. Further, the inhibition at 0.03 µM at Human VAP-1 enzyme was no less than 50%.
As for `CS(=O)(=O)NCCON=C1CCN(c2ncc(-c3cccc(COC(=O)NC(=N)N)c3F)cn2)CC1` [Example 159, 2-Fluoro-3-[2-(4-{[2-(methylsulfonamido)ethoxy]imino}piperidin-1-yl)pyrimidin-5-yl]benzyl carbamimidoylcarbamate], the inhibition in vivo at 0.3 mg/kg at Rat Plasma VAP-1 was no less than 50%. Further, the inhibition at 0.03 µM on Human VAP-1 enzyme is no less than 50%.
For the molecule `N#CCCON=C1CCN(c2ncc(-c3cccc(COC(=O)NC(=N)N)c3F)cn2)CC1` [Example 165, 3-(2-{4-[(2-Cyanoethoxy)imino]piperidin-1-yl}pyrimidin-5-yl)-2-fluorobenzyl carbamimidoylcarbamate], on Rat Plasma VAP-1, the inhibition in vivo at 0.3 mg/kg is no less than 50%. Further, the inhibition at 0.03 µM on Human VAP-1 enzyme is no less than 50%.
As for `N#CCCCON=C1CCN(c2ncc(-c3cccc(COC(=O)NC(=N)N)c3F)cn2)CC1` [Example 166, 3-(2-{4-[(3-Cyanopropoxy)imino]piperidin-1-yl}pyrimidin-5-yl)-2-fluorobenzyl carbamimidoylcarbamate], the inhibition in vivo at 0.3 mg/kg on Rat Plasma VAP-1 is no less than 50%. The inhibition at 0.03 µM at Human VAP-1 enzyme was no less than 50%.
With `CS(=O)(=O)CCON=C1CCN(c2ncc(-c3cccc(COC(=O)NC(=N)N)c3F)cn2)CC1` [Example 167, 2-Fluoro-3-[2-(4-{[2-(methylsulfonyl)ethoxy]imino}piperidin-1-yl)pyrimidin-5-yl]benzyl carbamimidoylcarbamate], the inhibition in vivo at 0.3 mg/kg on Rat Plasma VAP-1 was no less than 50%. The inhibition at 0.03 µM on Human VAP-1 enzyme is no less than 50%.
For the molecule `CS(=O)(=O)CCCON=C1CCN(c2ncc(-c3cccc(COC(=O)NC(=N)N)c3F)cn2)CC1` [Example 168, 2-Fluoro-3-[2-(4-{[3-(methylsulfonyl)propoxy]imino}piperidin-1-yl)pyrimidin-5-yl]benzyl carbamimidoylcarbamate], the inhibition in vivo at 0.3 mg/kg at Rat Plasma VAP-1 was no less than 50%. Further, the inhibition at 0.03 µM on Human VAP-1 enzyme was no less than 50%.
On to `Cn1ccc(CON=C2CCN(c3ncc(-c4cccc(COC(=O)NC(=N)N)c4F)cn3)CC2)n1` [Example 169, 2-Fluoro-3-[2-(4-{[(1-methyl-1H-pyrazol-3-yl)methoxy]imino}piperidin-1-yl)pyrimidin-5-yl]benzyl carbamimidoylcarbamate], for which the inhibition in vivo at 0.3 mg/kg on Rat Plasma VAP-1 was no less than 50%. Moreover, at Human VAP-1 enzyme, the inhibition at 0.03 µM was no less than 50%.
On to `N=C(N)NC(=O)OCc1cccc(-c2cnc(N3CCC(=NOCc4cc[nH]n4)CC3)nc2)c1F` [Example 171, 3-[2-(4-{[(1H-pyrazol-3-yl)methoxy]imino}piperidin-1-yl)pyrimidin-5-yl]-2-fluorobenzyl carbamimidoylcarbamate], for which, at Rat Plasma VAP-1, the inhibition in vivo at 0.3 mg/kg was no less than 50%. In addition, the inhibition at 0.03 µM on Human VAP-1 enzyme is no less than 50%.

(Values after patent US10759781B2, “Substituted guanidine derivatives” (UBE INDUSTRIES, LTD., priority 2015, dated 2020).)
